Consider four compounds from PMC12595434, “Development of retinoid nuclear receptor pathway antagonists through targeting aldehyde dehydrogenase 1A3” (iScience, 2025).

The test system of data set [1] is GABAA.
In data set [2] the target is T1, human ALDH1A2 (Homo sapiens, UniProt O94788).
T1 construct: made in house; host or cells: BL21-DE3 E. coli
T1 sequence (O94788 1-518): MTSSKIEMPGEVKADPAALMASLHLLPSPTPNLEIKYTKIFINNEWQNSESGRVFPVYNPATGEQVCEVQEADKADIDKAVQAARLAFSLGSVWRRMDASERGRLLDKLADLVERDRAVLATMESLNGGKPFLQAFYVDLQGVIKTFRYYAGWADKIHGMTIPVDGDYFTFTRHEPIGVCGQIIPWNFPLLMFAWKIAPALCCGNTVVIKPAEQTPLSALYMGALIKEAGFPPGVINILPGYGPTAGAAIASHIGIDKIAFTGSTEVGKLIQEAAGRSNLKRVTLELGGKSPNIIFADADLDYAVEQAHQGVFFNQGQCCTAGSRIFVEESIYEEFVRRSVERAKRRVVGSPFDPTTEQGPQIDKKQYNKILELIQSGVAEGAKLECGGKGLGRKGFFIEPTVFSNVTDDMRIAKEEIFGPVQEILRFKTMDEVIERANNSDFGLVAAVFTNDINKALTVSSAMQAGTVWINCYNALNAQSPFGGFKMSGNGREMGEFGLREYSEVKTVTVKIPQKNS
The experiment in a line: Recombinant enzyme activity assay. Particulars: dose titration, up to 10 μM. Format: biochemical. The method, then: (§1) Human and mouse ALDH enzymes were cloned from respective reference RNA, constructed into plasmids using restriction enzyme cloning and confirmed by Sanger Sequencing. Genes were cloned into a vector containing the T7 promoter for bacterial expression and into a lentiviral expression vector for cell line expression as previously described.[78] Recombinant protein was isolated by inducing BL21-DE3 E. coli (Thermo Fisher) containing the respective plasmid for 20 h at room temperature, shaking, with 300 μM IPTG (Selleck Chem). Cell disruption was achieved via ultrasonication (Φ10, 3s on/6s off, 25min) in 1L of amplified bacterial culture. The target protein was then purified using Ni NTA beads 6FF affinity chromatography. Lysis buffer consisted of 50 mM Na2HPO4, 300 mM NaCl, 1 mM β-ME, pH7.5. The column (2 mL) was washed with 50 mM Na2HPO4, 300 mM NaCl, 1 mM β-ME, 20 mM Imidazole, pH7.5. Elution was performed using 3 mL of 50 mM Na2HPO4, 300 mM NaCl, 1 mM β-ME, 250 mM Imidazole, pH7.5. Following affinity chromatography, the protein underwent further purification via Gel filtration chromatography using a Superdex200 column. Aliquots were quality controlled against a pure internal standard enzyme and/or by western blot to confirm enzyme expression. Purified enzyme was used for biochemical and biophysical assays.
(§2) For the recombinant enzyme activity assay, enzyme aliquots were thawed on ice for 4 h prior to analysis and the protocol was performed as described[8] with the following key changes: 1) Final concentrations of NAD+ (Gold Bio) were 200 μM and BSA were 1 mg/mL 2) Propanaldehyde was used as the substrate for ALDH1A1 and ALDH2. 3) Reaction velocity was monitored through diaphorase (clostridium) coupled reduction of resazurin (100 μM) monitored with ex/em of 560nm/590 nm in order to regenerate NAD+ and thus maintain constant cofactor concentration as well as to avoid high absorbance values of many screening compounds at the NADH absorbance. Assays were conducted at room temperature (controlled to 21-23C) and all buffers were maintained at pH 7.5. For all reactions, pre-incubation time was approximately 2 min while the reaction monitoring was performed over 10 min.

For data set [3], the target named is T2, human ALDH1A3 in A375 cells (Homo sapiens, UniProt P47895).
T2 construct: the cell lines with high endogenous ALDH1A3 activity: MDA-MB-468 (triple-negative breast cancer), A375 (melanoma), and LN229 (glioblastoma); endogenous in cells; host or cells: A375
T2 sequence (P47895 1-512): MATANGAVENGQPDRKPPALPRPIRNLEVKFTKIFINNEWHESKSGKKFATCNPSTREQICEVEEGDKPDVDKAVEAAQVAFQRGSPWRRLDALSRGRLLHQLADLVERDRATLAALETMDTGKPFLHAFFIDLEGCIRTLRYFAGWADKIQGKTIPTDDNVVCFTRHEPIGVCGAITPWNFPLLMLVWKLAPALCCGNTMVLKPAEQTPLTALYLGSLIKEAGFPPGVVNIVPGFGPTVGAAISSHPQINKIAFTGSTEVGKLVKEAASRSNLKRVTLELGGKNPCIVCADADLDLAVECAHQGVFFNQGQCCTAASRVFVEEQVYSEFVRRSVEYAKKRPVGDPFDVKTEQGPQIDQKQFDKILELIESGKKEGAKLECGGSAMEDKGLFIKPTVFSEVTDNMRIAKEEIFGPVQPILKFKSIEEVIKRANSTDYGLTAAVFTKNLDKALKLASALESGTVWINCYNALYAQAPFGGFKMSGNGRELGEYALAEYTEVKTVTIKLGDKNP
The experiment in a line: Aldefluor assay in A375 cells. Particulars: for activity in Aldefluor assay, A375 cells (in words): up to 10 μM. Format: cell-based.

Data set [4] has as its target T3, human ALDH1A1 (Homo sapiens, UniProt P00352).
T3 construct: made in house; host or cells: BL21-DE3 E. coli
T3 sequence (P00352 1-501): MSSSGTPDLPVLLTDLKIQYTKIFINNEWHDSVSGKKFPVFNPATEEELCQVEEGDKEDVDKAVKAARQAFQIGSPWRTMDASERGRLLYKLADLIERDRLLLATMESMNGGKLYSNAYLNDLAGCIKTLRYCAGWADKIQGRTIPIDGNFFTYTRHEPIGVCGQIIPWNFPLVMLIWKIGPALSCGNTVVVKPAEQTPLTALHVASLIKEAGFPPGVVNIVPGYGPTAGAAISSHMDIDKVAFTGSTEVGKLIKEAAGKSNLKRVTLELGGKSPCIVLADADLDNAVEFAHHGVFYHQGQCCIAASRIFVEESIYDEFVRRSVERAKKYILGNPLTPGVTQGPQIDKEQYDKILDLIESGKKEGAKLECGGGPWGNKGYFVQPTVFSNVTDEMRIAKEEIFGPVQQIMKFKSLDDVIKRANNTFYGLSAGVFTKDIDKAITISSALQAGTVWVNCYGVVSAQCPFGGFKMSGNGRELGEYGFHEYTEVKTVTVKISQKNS
As to the kind of experiment: Recombinant enzyme activity assay. The data set is classed as biochemical. Particulars: dose titration, up to 10 μM.

Data set [5] concerns the target T4, ALDH1A3 (Homo sapiens, UniProt P47895).
T4 sequence (P47895 1-512): T2 sequence (P47895 1-512)
As to the kind of experiment: Recombinant enzyme activity assay. Format: biochemical. Particulars: dose titration; for inhibitory activity against ALDH1A3 (in words): up to 10 μM. More on the design: made in house; host or cells: BL21-DE3 E. coli.
Method: We then tested each published ALDH inhibitor against the three human ALDH1A enzymes to assess inhibitory activity and isozyme selectivity.
Recombinant protein was isolated by inducing BL21-DE3 E. coli (Thermo Fisher) containing the respective plasmid for 20 h at room temperature, shaking, with 300 μM IPTG (Selleck Chem). […] The target protein was then purified using Ni NTA beads 6FF affinity chromatography. Lysis buffer consisted of 50 mM Na2HPO4, 300 mM NaCl, 1 mM β-ME, pH7.5. The column (2 mL) was washed with 50 mM Na2HPO4, 300 mM NaCl, 1 mM β-ME, 20 mM Imidazole, pH7.5. Elution was performed using 3 mL of 50 mM Na2HPO4, 300 mM NaCl, 1 mM β-ME, 250 mM Imidazole, pH7.5. Following affinity chromatography, the protein underwent further purification via Gel filtration chromatography using a Superdex200 column. […] Purified enzyme was used for biochemical and biophysical assays.

Data set [6] concerns the target T5, ALDH1A1 in HepG2 cells (Homo sapiens, UniProt P00352).
T5 construct: endogenous in cells; host or cells: HepG2
As to the kind of experiment: Aldefluor assay in HepG2 cells. Format: cell-based. Particulars: 45 min incubation at 37°C. The method, then:
(§3) In addition, cells were suspended at a concentration of 100,000 cells per mL. Finally, DMSO was added to at 1% final in all cells to improve kinetics of the assay. For compound titrations, concentrated compound stock was added first to tubes and a uniform Aldefluor buffer containing the cell suspension was added to dilute to final volumes. Cells were analyzed by a BD LSRII for flow cytometry and were sorted using a FACSAria Fusion cell sorter (BD Biosciences) equipped with a 70 micron nozzle. Sample and sort collection tubes were kept at 4°C. […] DAPI was used as a live-dead indicator.

In data set [7] the target is T6, mouse ALDH1A3 (Mus musculus, UniProt Q9JHW9).
T6 construct: made in house; host or cells: BL21-DE3 E. coli
T6 sequence (Q9JHW9 1-512): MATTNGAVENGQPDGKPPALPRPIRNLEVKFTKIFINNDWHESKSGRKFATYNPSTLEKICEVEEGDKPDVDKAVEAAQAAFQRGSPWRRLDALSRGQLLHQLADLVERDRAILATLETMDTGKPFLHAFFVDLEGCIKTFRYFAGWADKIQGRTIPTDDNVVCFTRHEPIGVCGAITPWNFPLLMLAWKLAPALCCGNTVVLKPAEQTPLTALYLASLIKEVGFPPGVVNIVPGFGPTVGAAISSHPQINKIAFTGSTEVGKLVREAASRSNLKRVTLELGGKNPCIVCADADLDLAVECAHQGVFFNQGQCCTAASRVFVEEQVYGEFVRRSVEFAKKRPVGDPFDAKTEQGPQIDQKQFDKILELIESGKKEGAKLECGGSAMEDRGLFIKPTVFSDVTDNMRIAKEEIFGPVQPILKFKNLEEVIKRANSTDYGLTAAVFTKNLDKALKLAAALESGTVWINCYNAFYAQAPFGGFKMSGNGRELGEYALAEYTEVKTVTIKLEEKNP
The experiment in a line: Recombinant enzyme activity assay. The following applies: dose titration, substrate competition assay, recombinant mouse ALDH1A3, 4-parameter equation; read-out: muALDH1A3 IC50. The data set is classed as biochemical. The protocol:
as §1, §2

Data set [8] deals with MCF7 cells. As to the kind of experiment: Aldefluor assay in MCF7 cells. Format: cell-based, human. Particulars: 1 mM DEAB, negative control gate. The protocol: as §3
For data set [9], the system named is MDA-MB-468 cells. The experiment in a line: Aldefluor assay in MDA-MB-468 cells. The following applies: 1 mM DEAB, negative control gate. Format: cell-based, human. The protocol: as §3
For data set [10], the system named is MDA-MB-231 cells. The experiment in a line: Aldefluor assay in MDA-MB-231 cells. Format: cell-based, human. The following applies: 1 mM DEAB, negative control gate. The method, then: as §3
In data set [11] the test system is LN229 cells. As to the kind of experiment: Aldefluor assay in LN229 cells. Format: cell-based, human. Particulars: 1 mM DEAB, negative control gate. The method, then: as §3
For data set [12], the system named is NCI-H358 cells. The experiment in a line: Aldefluor assay in NCI-H358 cells. Format: cell-based, human. Particulars: 1 mM DEAB, negative control gate. The protocol: as §3
The test system of data set [13] is HaCaT cells. The experiment in a line: Dose-titration cytotoxicity analysis. The following applies: 24 hour incubation, highest tested dose 10 μM.
Data set [14] relates to ALDH1A3. Particulars: read-out: reported IC50 for ALDH1A3; cited from earlier work.
In data set [15] the test system is MDA-MB-468 cells. Particulars: MDA-MB-468, 24 hour incubation, highest tested dose 10 μM.
The subject of data set [16] is ALDH1A3 cells. Particulars: cited from earlier work.

As usually defined, the inhibition is the drop in the measured response relative to a control, in per cent. A high value points to strong suppression. Take `CCOC(=O)c1ncn2c1CN(C)C(=O)c1cc(F)ccc1-2` [flumazenil]: in [1], the inhibition is 95.9%.
For `CSC(=O)C#CC(C)(C)N(C)C` [DIMATE, S-methyl 4-(dimethylamino)-4-methyl-pent-2-ynethioate], in data set [2], the “inhibitory activity against ALDH1A2 (in words)” value is “did not show any activity”. In [3], the “activity in Aldefluor assay, A375 cells (in words)” value is given as “no dose-dependent inhibition of activity”. In addition, the “inhibitory activity against ALDH1A1 (in words)” value in data set [4] is reported as “did not show any activity”. For the same compound, the “inhibitory activity against ALDH1A3 (in words)” value in data set [5] is “did not show any activity”. In [6], this compound came in with an inhibition at 10 µM of 13%.
Usually IC50 stands for the concentration that inhibits the measured activity by half. Regarding `CCN(CC)c1ccc(C=O)cc1` [DEAB, 4-diethylaminobenzaldehyde], the 50% inhibitory concentration (IC50) in data set [7] was determined as 1.38 µM; in data set [5] (substrate competition assay, recombinant human ALDH1A3, 4-parameter equation, read-out: huALDH1A3 IC50), 23.1 µM. The “inhibitory activity against ALDH1A2 (in words)” value in [2] is “moderate”. Also, the “ALDH^+” value in data set [8] was determined as 1.77; in data set [9], 0.22; in data set [10], 0.42; in data set [3] (1 mM DEAB, negative control gate, A375), 0.32; in [11] it was 0.19; in data set [12] it was 0.53. In data set [3], the “activity in Aldefluor assay, A375 cells (in words)” value is on record as “showed activity”. The “inhibitory activity against ALDH1A3 (in words)” value in [5] is “weak”.
For the compound `c1ccc(-c2ccc3nc(-c4ccccc4)cn3c2)cc1` [GA11], the “inhibitory activity against ALDH1A2 (in words)” value in data set [2] was “no activity up to 10 μM”. Further, the “nonspecific cytotoxicity (in words)” value in data set [13] and in data set [15] was “potent cytotoxicity above 100 nM” throughout. Also, the half-maximal inhibitory concentration (IC50) in data set [14] is 0.66 µM. Further, in data set [4], the “inhibitory activity against ALDH1A1 (in words)” value is “no activity up to 10 μM”. The “inhibitory activity against ALDH1A3 (in words)” value in data set [5] is on record as “no ALDH1A3 inhibitory activity up to 10 μM”. Further, the “reported cytotoxic activity against ALDH1A3 cells (in words)” value in [16] is “picomolar”.
